This is an account of results in article doi:10.1101/2023.05.09.538545v2, “Engineering dynamic gates in binding pocket of penicillin G acylase to selectively degrade bacterial signaling molecules” (biorxiv, 2024).

In this test the target is T1, ecPGA (Escherichia coli penicillin G acylase) (Escherichia coli, UniProt P06875).
T1 construct: gene pac; mature alpha/beta heterodimer cut from one precursor (signal peptide and spacer removed); ecpga gene in pET-26b, E. coli BL21(DE3), purified after Kutzbach and Rauenbusch; His-tagged version made for melting analysis; WT source plasmid pKA18
Briefly: HPLC of AHL hydrolysis at […] nm, initial rates. It is filed as biochemical.

T1 sequence (P06875 27-235): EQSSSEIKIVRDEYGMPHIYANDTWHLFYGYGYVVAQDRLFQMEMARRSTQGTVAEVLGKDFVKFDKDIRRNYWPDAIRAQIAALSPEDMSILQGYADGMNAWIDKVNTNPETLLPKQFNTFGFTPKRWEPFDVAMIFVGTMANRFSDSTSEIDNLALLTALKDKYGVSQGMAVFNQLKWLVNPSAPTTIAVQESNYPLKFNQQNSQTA
T1 sequence (P06875 290-846): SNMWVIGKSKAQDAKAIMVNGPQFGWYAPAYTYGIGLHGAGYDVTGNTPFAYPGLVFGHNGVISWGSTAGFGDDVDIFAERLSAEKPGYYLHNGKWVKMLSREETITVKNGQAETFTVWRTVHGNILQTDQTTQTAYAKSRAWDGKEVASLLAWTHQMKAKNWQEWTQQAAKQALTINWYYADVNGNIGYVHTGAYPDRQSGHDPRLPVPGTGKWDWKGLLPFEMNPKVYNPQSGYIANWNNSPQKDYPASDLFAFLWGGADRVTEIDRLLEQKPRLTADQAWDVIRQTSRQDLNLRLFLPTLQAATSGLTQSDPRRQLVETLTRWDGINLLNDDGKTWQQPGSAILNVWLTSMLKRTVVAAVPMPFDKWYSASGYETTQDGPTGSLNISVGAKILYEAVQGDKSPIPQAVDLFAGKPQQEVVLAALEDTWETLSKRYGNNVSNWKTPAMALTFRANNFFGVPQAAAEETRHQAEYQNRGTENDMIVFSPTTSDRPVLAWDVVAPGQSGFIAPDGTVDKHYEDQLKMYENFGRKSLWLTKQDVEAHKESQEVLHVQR

Turning to `CCCCCCCC(=O)N[C@H]1CCOC1=O` [C08, N-octanoyl-L-homoserine lactone], the Km (as a rule, the concentration of substrate that gives half-maximal velocity) is 700 ± 40 µM.
